According to US12275685B2, “Oligo-benzamide analogs and their use in cancer treatment” (Board of Regents, The University of Texas System, priority 2018, dated 2025):

What was measured:
[1] = Tolerability of ERX-41 in mice; assay type: in vivo; conditions: daily oral or intraperitoneal, up to 200 mg/kg
Procedure: Additionally, ERX-41 was detectable within 1.5 h in established subcutaneous MDA-MB-231 xenograft tumors after oral or intraperitoneal administration (FIG. 35A). […] ERX-41 decreased tumor growth, as shown by extirpated tumor sizes at the end of study (FIG. 35C and FIG. 35E). […] The inventors validated the activity of ERX-41 in four distinct TNBC PDXs established in the mammary fat pad (FIGS. 35I-P).

[2] = system: estrogen receptor-positive, estrogen receptor-negative and therapy resistant ERMT cells; test: MTT assay of TK41 on breast cancer cells; assay type: cell-based
Procedure: FIGS. 2A-2C show the potency of TK41 (IC50 from 50-500 nM) on estrogen receptor-positive (FIG. 2A), estrogen receptor-negative (FIG. 2B) and therapy resistant ERMT (FIG. 2C) cells determined by MTT assay.

TNBC cells = test: ER stress induction in TNBC cells (electron microscopy, western blots); assay type: cell-based
Procedure: FIGS. 36A-H: ERX-41 induces ER stress in TNBC. (FIGS. 36A-C) Volcano plots show the relative effect of 4 h treatment of 1 μM ERX-41 compared to vehicle in MDA-MB-231 (FIG. 36A), BT-549 (FIG. 36B) TNBC and HMEC (FIG. 36C) cell lines. (FIG. 36D) Gene ontology analyses show the top regulated pathways. (FIG. 36E) Heatmap of the top ER stress and UPR genes in these three TNBC cell lines after 2 h and 4 h treatment with 1 μM ERX-41 treatment. […] (FIG. 36G) Time course of the effect of 1 μM ERX-41 on the mRNA expression of canonical ER stress genes, HSPAS and DDIT3 and UPR stress sensor-sXBP1 in MDA-MB-231, BT-549 and HMEC cells.
(§1) The basal level of expression of endoplasmic reticulum stress and unfolded protein response correlates with TK41 activity (FIG. 28). Modulation of the level of these stress proteins affects the activity of TK41. Thus, the basal level of expression of endoplasmic reticulum stress and unfolded protein response proteins may serve as a biomarker to predict response to TK41. […] Without wishing to be bound by any particular theory, the mechanism of action of TK41 may operate comprise targeting either ER or TLX and inducing endoplasmic reticulum stress, subsequent apoptosis, and blocking autophagic fusion (FIG. 30).
(§2) ERX-41 induces endoplasmic reticulum stress in TNBC. To understand the mechanism of action of ERX-41 in TNBC, the inventors performed unbiased RNA sequencing studies in three TNBC (SUM-159, MDA-MB-231, and BT549) and normal HMEC cell lines (FIGS. 36A-C). […] Heatmaps show the induction of ER stress and UPR genes in these three TNBC cell lines (FIG. 36E). Evaluation of ER stress induction was then performed with ultrastructural studies using electron microscopy (EM) studies.

TNBC cells with LIPA KO = test: Response of LIPA knockout TNBC cells, CellTiter-Glo; assay type: cell-based; conditions: LIPA KO clones
Description: FIGS. 37A-J: The molecular target of ERX-41 in TNBC is LIPA. […] (FIG. 37B) Knockout clones of LIPA, ACACA, TMEM208, SOAT1 and ARID1A were generated in MDA-MB-231 cells and evaluated for response to ERX-41 using doseresponse curves using CellTiter-Glo assays in vitro. (FIGS. 37C-D) Effect of knockout of LIPA in SUM-159 (FIG. 37C) and MDA-MB436 (FIG. 37D) on dose response curve to ERX-41 using CellTiter-Glo assays in vitro. (FIGS. 37E-F) Dose response curves of SUM-159 parental cells and clones with LIPA KO to thapsigargin (FIG. 37E) and paclitaxel (FIG. 37F). (FIGS. 37G-H) Live cell imaging studies with SYTOX Green to examine ability of 1 μM ERX-41 to induce cell death in parental SUM-159 and SUM-159 clones with LIPA KO, with quantitation (FIG. 37G) and time-lapsed photomicrographs at 0 h and 30 h ((FIG. 37H). (FIGS. 37I-J) SCID mice were implanted with either parental SUM-159 or SUM-159 clones with LIPA KO (n=6, each group) and tumors were allowed to establish (150 mm^3). Following daily intraperitoneal administration of 10 mg/kg ERX-41, tumor sizes were measured and graphed (FIG. 37I), along with mice body weights (FIG. 37J). *p<0.05. **p<0.01; ***p<0.001.
The molecular target of ERX-41 in TNBC is LIPA. […] Knockout clones of LIPA, SLC5A3, SMAP2, TMEM208, SOAT1 and ARID1A were generated in multiple TNBC cells and evaluated for response to ERX-41.

[3] = system: 22 human preclinical TNBC cell line models; test: CellTiter-Glo cell viability assay in TNBC cell lines; assay type: cell-based; conditions: 22 TNBC cell lines, read-out: IC50, CellTiter-Glo cell viability assays
Description: (§3) FIGS. 34A-C: Dose response curve of ERX-41 in multiple TNBC. cell lines using WST-1 assays (FIG. 34A) and CellTiter-Glo assays (FIG. 34B). […] Quantification of the number of dead cells over time seen with live cell imaging in MDAMB-231 and HMEC cells is shown.
(§4) To evaluate the generalizability of the inventors' findings, they evaluated ERX-41 in a large number of TNBC and ERa-positive cell lines.

HMEC cells = test: ER stress induction in HMEC cells; assay type: cell-based, human; conditions: normal HMEC cells
Description: as §1, §2

[4] = system: normal human mammary epithelial cells (HMEC); test: WST, MTT or CellTiter-Glo assays in HMEC; assay type: cell-based; conditions: at >1 μM
Description: as §3, §4

SMILES: CC(C)COc1cc(C(=O)Nc2ccc(C(=O)N[C@H]3CC[C@H](C)CC3)cc2OCC(C)C)ccc1NC(=O)c1ccc([N+](=O)[O-])c(OCCO)c1 [TK41]
- tolerability [1]: well tolerated
- IC50 ([2]; ER-positive, ER-negative and therapy resistant ERMT cells, MTT assay): 50 to 500 nM
- effect on endocrine therapy resistant breast cancer cells ([2]; endocrine therapy resistant breast cancer cells): very effective
- induction of ER stress and UPR proteins (p-PERK, IRE1a, eiF2a, CHOP) (TNBC cells; 1 μM, western blotting, TNBC cells): induces ER stress and downstream UPR pathways
- induction of endoplasmic reticulum stress (TNBC cells; TNBC MD-MBA-231 cells): induce endoplasmic reticulum stress
- dilation of the ER by electron microscopy (TNBC cells; within 4 h of treatment, TNBC cells): induced dramatic dilation of the ER
- cytotoxic response after knockout of LIPA (TNBC cells with LIPA KO): abrogate the cytotoxic response
- IC50 [3]: < 250 nM
- induction of endoplasmic reticulum stress in HMEC (HMEC cells): does not induce endoplasmic reticulum stress
- induction of endoplasmic reticulum stress in HMEC (HMEC cells; listed as ERX-41): unable to induce ER stress
- effect against HMEC [4]: did not have significant effect
